Experimental data as given in the supplement of paper PMC10307832.

Legend:
Test in all cases: relative viability (nuclei count vs DMSO), 5 days (fraction); higher = more cells survive
[1] = compound: Cn1c(=O)n(-c2ccc(C(C)(C)C#N)cc2)c2c3cc(-c4cnc5ccccc5c4)ccc3ncc21 [Dactolisib] + Cc1cc(Nc2cc(N3CCN(C)CC3)nc(Sc3ccc(NC(=O)C4CC4)cc3)n2)n[nH]1 [Tozasertib] (partner 0.1 µM)
How it was run: (§1)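 Lung cancer cell lines in 1536-well plates got either a single drug or a fixed anchor-drug dose together with five library-drug doses (not always all listed) in √10 steps, by pin tool, on the day after seeding. Nuclei were counted after 5 days, and relative viability is the treated-to-vehicle ratio of nuclei counts. Values are medians of duplicate plates.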

[2] = compound: Cn1c(=O)n(-c2ccc(C(C)(C)C#N)cc2)c2c3cc(-c4cnc5ccccc5c4)ccc3ncc21 [Dactolisib] + O=C(c1cc(Cc2n[nH]c(=O)c3ccccc23)ccc1F)N1CCN(C(=O)C2CC2)CC1 [Olaparib] (partner 8 µM)
How it was run: as §1

[3] = compound: Cn1c(=O)n(-c2ccc(C(C)(C)C#N)cc2)c2c3cc(-c4cnc5ccccc5c4)ccc3ncc21 [Dactolisib] + CCNC(=O)c1noc(-c2cc(C(C)C)c(O)cc2O)c1-c1ccc(CN2CCOCC2)cc1 [Luminespib] (partner 0.01 µM)
How it was run: as §1

[4] = compound: C1CCC(CC1)N(CCNCCC2=C3C(=C(C=C2)O)NC(=O)CO3)C(=O)CCNCCC4=CC(=C(C=C4)Cl)Cl [AZ505] + O=C(CCCCCCC(=O)Nc1ccccc1)NO [Vorinostat] (partner 1 µM)
How it was run: as §1

Cell Line | relative viability ([1]; first compound 0.002 µM) | relative viability ([1]; first compound 0.006325 µM) | relative viability ([1]; first compound 0.02 µM) | relative viability ([1]; first compound 0.06325 µM) | relative viability ([1]; first compound 0.2 µM) | relative viability ([2]; first compound 0.002 µM) | relative viability ([2]; first compound 0.006325 µM) | relative viability ([2]; first compound 0.02 µM) | relative viability ([2]; first compound 0.06325 µM) | relative viability ([2]; first compound 0.2 µM) | relative viability ([3]; first compound 0.002 µM) | relative viability ([3]; first compound 0.006325 µM) | relative viability ([3]; first compound 0.02 µM) | relative viability ([3]; first compound 0.06325 µM) | relative viability ([3]; first compound 0.2 µM) | relative viability ([4]; first compound 0.08 µM) | relative viability ([4]; first compound 0.253 µM) | relative viability ([4]; first compound 0.8 µM) | relative viability ([4]; first compound 2.53 µM) | relative viability ([4]; first compound 8 µM)
NCI-H522 | 0.625 | 0.575 | 0.542 | 0.521 | 0.385 | 0.691 | 0.664 | 0.68 | 0.464 | 0.446 | 1.15 | 1.17 | 1.22 | 0.659 | 0.596 | 0.688 | 0.909 | 0.927 | 0.874 | 0.818
NCI-H2405 | 0.79 | 0.826 | 0.85 | 0.527 | 0.44 | 0.866 | 0.86 | 0.858 | 0.5 | 0.409 | 0.665 | 0.689 | 0.755 | 0.393 | 0.272 | 0.811 | – | 0.823 | 0.856 | 0.863
NCI-H1755 | 0.613 | 0.555 | 0.577 | 0.542 | 0.419 | 0.987 | 0.886 | 0.86 | 0.733 | 0.476 | 0.298 | 0.399 | 0.418 | 0.417 | 0.359 | 0.782 | 0.859 | 0.788 | 0.743 | 0.813
LOU-NH91 | 0.645 | 0.655 | 0.683 | 0.616 | 0.449 | 0.832 | 0.901 | 0.886 | 0.608 | 0.632 | 0.378 | 0.295 | 0.351 | 0.316 | 0.317 | 0.837 | 0.855 | 0.91 | 0.856 | 0.908
NCI-H3122 | 0.427 | 0.361 | 0.425 | 0.352 | 0.16 | 0.564 | 0.557 | 0.659 | 0.629 | 0.641 | 0.134 | 0.0901 | 0.104 | 0.0762 | 0.085 | 0.807 | 1.02 | 1.03 | 0.992 | 1.01
HCC-827 | 0.419 | 0.452 | 0.401 | 0.416 | 0.329 | 0.601 | 0.611 | 0.608 | 0.479 | 0.411 | 0.532 | 0.626 | 0.538 | 0.401 | 0.144 | 0.906 | 0.732 | 0.7 | 0.92 | 0.924
SW 1573 | 0.153 | 0.2 | 0.232 | 0.154 | 0.0965 | 0.557 | 0.324 | 0.418 | 0.162 | 0.145 | 0.234 | 0.214 | 0.214 | 0.168 | 0.0994 | 0.807 | 0.806 | 1.53 | 0.756 | 0.79
NCI-H1975 | 0.753 | 0.724 | 0.578 | 0.267 | 0.138 | 0.778 | 0.817 | 0.632 | 0.302 | 0.269 | 0.133 | 0.157 | 0.181 | 0.144 | 0.123 | 0.632 | 0.61 | 0.625 | 0.592 | 0.666
